Source: patent publication US20230416248A1, “COMPOUNDS AND USES THEREOF” (Foghorn Therapeutics Inc., priority 2020, published 2023)
Where two headings read alike, the source gives them in different places.

Tests used:
BRM = target: T1, BRM (Homo sapiens, UniProt P51531); test: ATPase catalytic activity of BRM, ADP-Glo in vitro biochemical assay; conditions: for IC50: 30 nM BRM, 400 μM ATP; for Ratio* (BRG1 IC50 (μM) divided by BRM IC50 (μM)): selectivity ratio BRG1 IC50 / BRM IC50
T1 construct: made in house; host or cells: High Five insect cells
T1 sequence (P51531 whole entry): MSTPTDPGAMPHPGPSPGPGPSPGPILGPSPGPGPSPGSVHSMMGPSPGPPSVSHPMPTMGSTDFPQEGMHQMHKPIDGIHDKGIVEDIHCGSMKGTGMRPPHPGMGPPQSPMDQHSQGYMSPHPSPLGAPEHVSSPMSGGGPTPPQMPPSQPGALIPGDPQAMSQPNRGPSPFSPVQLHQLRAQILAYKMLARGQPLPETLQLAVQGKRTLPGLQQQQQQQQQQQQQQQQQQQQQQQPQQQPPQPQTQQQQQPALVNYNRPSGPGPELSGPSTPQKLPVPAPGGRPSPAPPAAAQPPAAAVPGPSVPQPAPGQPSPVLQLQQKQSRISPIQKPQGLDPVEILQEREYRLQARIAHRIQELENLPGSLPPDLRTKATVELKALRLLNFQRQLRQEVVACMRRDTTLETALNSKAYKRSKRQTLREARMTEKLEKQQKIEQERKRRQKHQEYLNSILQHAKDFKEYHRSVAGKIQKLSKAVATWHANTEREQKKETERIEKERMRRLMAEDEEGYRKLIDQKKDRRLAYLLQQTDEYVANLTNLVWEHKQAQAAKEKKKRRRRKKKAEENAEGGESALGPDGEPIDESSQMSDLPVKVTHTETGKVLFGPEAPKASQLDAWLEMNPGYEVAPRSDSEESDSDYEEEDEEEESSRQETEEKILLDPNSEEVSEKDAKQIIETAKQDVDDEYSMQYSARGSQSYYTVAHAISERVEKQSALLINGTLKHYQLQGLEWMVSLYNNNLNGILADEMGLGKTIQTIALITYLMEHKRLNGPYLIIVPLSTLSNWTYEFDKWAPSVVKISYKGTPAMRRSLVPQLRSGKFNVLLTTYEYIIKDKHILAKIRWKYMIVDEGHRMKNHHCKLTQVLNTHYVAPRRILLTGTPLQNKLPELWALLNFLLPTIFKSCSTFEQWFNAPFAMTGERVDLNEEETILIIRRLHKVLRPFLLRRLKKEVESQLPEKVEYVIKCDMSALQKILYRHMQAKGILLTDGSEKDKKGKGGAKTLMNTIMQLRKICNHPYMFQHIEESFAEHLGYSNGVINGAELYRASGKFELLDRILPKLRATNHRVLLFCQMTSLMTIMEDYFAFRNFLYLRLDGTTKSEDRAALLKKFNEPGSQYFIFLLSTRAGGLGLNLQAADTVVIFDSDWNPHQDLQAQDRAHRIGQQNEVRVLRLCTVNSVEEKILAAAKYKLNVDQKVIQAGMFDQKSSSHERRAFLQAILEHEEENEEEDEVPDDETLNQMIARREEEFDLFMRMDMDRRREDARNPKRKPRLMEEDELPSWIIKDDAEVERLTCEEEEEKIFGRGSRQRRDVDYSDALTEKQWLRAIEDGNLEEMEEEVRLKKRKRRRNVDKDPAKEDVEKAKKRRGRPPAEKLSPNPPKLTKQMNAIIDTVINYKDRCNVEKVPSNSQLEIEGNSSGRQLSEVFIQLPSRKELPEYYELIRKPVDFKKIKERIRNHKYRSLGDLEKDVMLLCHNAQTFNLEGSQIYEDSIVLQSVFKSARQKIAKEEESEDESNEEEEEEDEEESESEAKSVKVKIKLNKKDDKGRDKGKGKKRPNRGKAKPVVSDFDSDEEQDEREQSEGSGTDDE
Outline: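 Recombinant BRM (30 nM) hydrolysed 400 μM ATP with 20 nM salmon sperm DNA in pH 8 Tris buffer containing 20 mM MgCl2, 50 mM NaCl, 0.1% Tween-20 and 1 mM DTT, 1 h at room temperature. ADP formed was quantified by ADP-Glo luminescence.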

BRG-1 = target: T2, BRG-1 (Homo sapiens, UniProt P51532); test: ATPase catalytic activity of BRG-1, ADP-Glo in vitro biochemical assay; conditions: 30 nM BRG-1, 400 μM ATP, read-out: BRG1 IC50
T2 construct: made in house; host or cells: High Five insect cells
T2 sequence (P51532 whole entry): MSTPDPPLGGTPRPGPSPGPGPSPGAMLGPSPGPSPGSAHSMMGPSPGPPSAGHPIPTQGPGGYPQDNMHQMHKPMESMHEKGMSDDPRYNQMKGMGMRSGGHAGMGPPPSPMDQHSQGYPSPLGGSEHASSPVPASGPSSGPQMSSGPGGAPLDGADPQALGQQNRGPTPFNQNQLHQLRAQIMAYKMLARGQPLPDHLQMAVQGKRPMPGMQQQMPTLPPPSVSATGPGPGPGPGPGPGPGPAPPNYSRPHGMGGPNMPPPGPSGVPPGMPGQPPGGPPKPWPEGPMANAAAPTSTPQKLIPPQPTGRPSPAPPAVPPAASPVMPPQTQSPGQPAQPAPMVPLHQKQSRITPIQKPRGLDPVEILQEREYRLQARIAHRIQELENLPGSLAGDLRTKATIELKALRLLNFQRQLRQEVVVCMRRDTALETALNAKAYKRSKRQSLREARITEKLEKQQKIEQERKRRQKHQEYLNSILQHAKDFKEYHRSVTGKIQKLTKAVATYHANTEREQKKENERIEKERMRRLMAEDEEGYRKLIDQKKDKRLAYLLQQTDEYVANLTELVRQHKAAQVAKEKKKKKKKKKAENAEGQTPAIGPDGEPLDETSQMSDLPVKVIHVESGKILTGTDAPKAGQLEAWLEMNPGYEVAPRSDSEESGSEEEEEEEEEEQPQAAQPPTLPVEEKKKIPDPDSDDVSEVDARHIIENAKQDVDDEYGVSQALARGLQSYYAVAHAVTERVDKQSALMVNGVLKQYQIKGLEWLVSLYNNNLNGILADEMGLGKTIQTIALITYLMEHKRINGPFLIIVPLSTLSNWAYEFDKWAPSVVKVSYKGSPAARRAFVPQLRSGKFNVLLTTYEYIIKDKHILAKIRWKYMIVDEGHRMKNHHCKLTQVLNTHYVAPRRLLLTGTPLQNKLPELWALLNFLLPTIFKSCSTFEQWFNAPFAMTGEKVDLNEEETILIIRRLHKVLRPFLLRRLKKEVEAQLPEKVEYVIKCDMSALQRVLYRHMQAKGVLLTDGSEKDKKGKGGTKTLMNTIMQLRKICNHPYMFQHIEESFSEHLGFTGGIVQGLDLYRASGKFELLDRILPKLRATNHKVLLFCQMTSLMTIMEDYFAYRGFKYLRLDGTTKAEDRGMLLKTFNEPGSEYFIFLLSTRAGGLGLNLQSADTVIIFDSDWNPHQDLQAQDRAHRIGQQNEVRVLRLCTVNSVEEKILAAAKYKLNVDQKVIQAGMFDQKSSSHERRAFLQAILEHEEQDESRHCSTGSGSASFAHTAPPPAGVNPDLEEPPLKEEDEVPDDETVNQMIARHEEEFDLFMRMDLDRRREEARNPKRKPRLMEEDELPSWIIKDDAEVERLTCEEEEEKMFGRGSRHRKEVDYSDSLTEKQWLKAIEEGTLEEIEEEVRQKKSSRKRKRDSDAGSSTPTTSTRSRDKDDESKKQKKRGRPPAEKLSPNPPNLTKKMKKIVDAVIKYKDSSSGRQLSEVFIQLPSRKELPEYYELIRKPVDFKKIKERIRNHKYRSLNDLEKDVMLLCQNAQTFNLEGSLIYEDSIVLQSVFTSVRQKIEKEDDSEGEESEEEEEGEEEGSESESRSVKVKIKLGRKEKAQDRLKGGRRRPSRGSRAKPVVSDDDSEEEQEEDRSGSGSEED
Outline: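 BRG-1 ATPase activity was measured by ADP-Glo. Unconsumed ATP was depleted for 40 min at room temperature, then ADP was converted to ATP for 60 min and read as luminescence.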

[1] = ATPase catalytic activity, ADP-Glo

Row | Structure (SMILES) | IC50 (BRM; ADP-Glo ATPase assay) [µM] | Ratio* (BRM; ratio BRG1 IC50 / BRM IC50) | IC50 (BRG-1; ADP-Glo ATPase assay) [µM] | Ratio* (BRG1 IC50 (μM) divided by BRM IC50 (μM)) (BRM) | IC50 (BRM; [1]) [µM] | Ratio* (BRM; ratio of BRG1 IC50 to BRM IC50) | IC50 (BRG-1; [1]) [µM]
1 | O=C(NCc1cc2cc(N3CCOc4ccc(C(F)F)nc43)ccc2cn1)c1ccc2c(c1)S(=O)(=O)CCOC2 [Compound 799] | 0.0255 | 26.04 | 0.663 |  |  |  | 
2 | CC(C)c1cccc(-c2ccc3cnc(CNC(=O)c4ccc5c(c4)S(=O)(=O)CCOC5)cc3n2)n1 [Compound 289] | 0.0598 |  | 0.958 | 16.01 |  |  | 
3 | O=C(NCc1cc2nc(-c3ccc4c(n3)N3CCOCC3C4)ccc2cn1)c1ccc2c(c1)S(=O)(=O)CCOC2 (stereo not drawn) [Compound 466] |  |  |  |  | 0.122 | 6.83 | 0.832
4 | Cc1cc(C(=O)NCc2cc3nc(-c4cccc(N5C[C@@H](C)O[C@@H](C)C5)n4)ccc3cn2)cc2c1COCCS2(=O)=O [Compound 354] |  |  |  |  | 0.014 | 29.57 | 0.415
5 | O=C(NCc1cc2nc(-c3cccc(OCC(F)F)n3)ccc2cn1)c1ccc2c(c1)S(=O)(=O)CCOC2 [Compound 167] | 0.0593 |  | 0.827 | 13.95 |  |  | 
6 | COCCn1ccc2c(-c3ccc4cnc(CNC(=O)c5ccc6c(c5)S(=O)(=O)CCOC6)cc4n3)ccnc21 [Compound 336] |  |  |  |  | 0.0066 | 16.08 | 0.107
7 | Cc1ccnc2c1CCN2c1ccc2cnc(CNC(=O)c3ccc4c(c3)S(=O)(=O)CCOC4)cc2n1 [Compound 743] | 0.0275 | 4.35 | 0.12 |  |  |  | 
8 | O=C(NCc1cc2nc(-c3ccc4c(n3)CN(C3CC3)CC4)ccc2cn1)c1ccc2c(c1)S(=O)(=O)CCOC2 [Compound 788] | 0.62 | 6.69 | 4.15 |  |  |  | 
9 | COc1cccc2c1CCN2c1ccc2cnc(CNC(=O)c3ccc4c(c3)S(=O)(=O)CCOC4)cc2n1 [Compound 647] |  |  |  |  | 0.0559 | 6.61 | 0.37
10 | C[C@@H]1CN(c2cccc(-c3ccc4cnc(CNC(=O)c5ccc6c(c5)S(=O)(=O)[C@@H](C)CCO6)cc4n3)n2)C[C@H](C)O1 [Compound 15] | 0.0075 |  | 0.0511 | 6.80 |  |  | 
11 | CN(c1cnc2c(c1)OCCN2c1ccc2cnc(CNC(=O)c3ccc4c(c3)S(=O)(=O)CCOC4)cc2n1)C1CC(F)(F)C1 [Compound 817] | 0.0124 | 11.55 | 0.143 |  |  |  | 
12 | C[C@@H]1CN(c2cccc(-c3cnc4cnc(CNC(=O)c5ccc6c(c5)S(=O)(=O)CCOC6)cc4c3)n2)C[C@H](C)O1 [Compound 161] | 0.0047 |  | 0.0452 | 9.62 |  |  | 
13 | O=C(NCc1cc2nc(N3CCN(CC(F)F)c4cccnc43)ccc2cn1)c1ccc2c(c1)S(=O)(=O)CCOC2 [Compound 742] | 0.024 | 19.92 | 0.478 |  |  |  | 
14 | COC[C@@H](C)N(C)c1cccc(-c2ccc3cnc(CNC(=O)c4ccc5c(c4)S(=O)(=O)CCOC5)cc3n2)n1 [Compound 72] | 0.224 |  | 1.23 | 5.48 |  |  | 
15 | O=C(NCc1cc2nc(-n3cc(F)c(N4CCOCC4)n3)ccc2cn1)c1ccc2c(c1)S(=O)(=O)CCOC2 [Compound 574] |  |  |  |  | 0.274 | 6.49 | 1.78
16 | O=C(NCc1cc2cc(N3CCOc4ccc(C5CC5)nc43)ccc2cn1)c1ccc2c(c1)S(=O)(=O)CCOC2 [Compound 729] | 0.0446 | 42.98 | 1.92 |  |  |  | 
17 | CN(CCOC1CC1)c1cccc(-c2ccc3cnc(CNC(=O)c4ccc5c(c4)S(=O)(=O)CCOC5)cc3n2)n1 [Compound 361] |  |  |  |  | 0.0074 | 19.62 | 0.145
18 | CCOC1CCS(=O)(=O)c2cc(C(=O)NCc3cc4nc(-c5cccc(N6CC(C)OC(C)C6)n5)ccc4cn3)ccc2C1 (stereo not drawn) [Compound 485] |  |  |  |  | 0.013 | 14.45 | 0.189

Row | Structure (SMILES) | IC50 (BRM; ADP-Glo ATPase assay) [µM] | Ratio* (BRM; ratio BRG1 IC50 / BRM IC50) | IC50 (BRG-1; ADP-Glo ATPase assay) [µM] | Ratio* (BRG1 IC50 (μM) divided by BRM IC50 (μM)) (BRM) | IC50 (BRM; [1]) [µM] | Ratio* (BRM; ratio of BRG1 IC50 to BRM IC50) | IC50 (BRG-1; [1]) [µM]
19 | C[C@@H]1CN(c2cccc(-c3ccc4cnc(CNC(=O)c5cc(F)c6c(c5)S(=O)(=O)CCOC6)cc4n3)n2)C[C@H](C)O1 [Compound 240] | 0.0065 |  | 0.0238 | 3.66 |  |  | 
20 | COc1nn(C(F)F)cc1-c1ccc2cnc(CNC(=O)c3ccc4c(c3)S(=O)(=O)CCOC4)cc2n1 [Compound 806] | 0.0923 | 8.67 | 0.801 |  |  |  | 
21 | O=C(NCc1cc2nc(-c3cccc([C@@H]4CC4(F)F)n3)ccc2cn1)c1ccc2c(c1)S(=O)(=O)CCOC2 [Compound 270] | 0.127 |  | 1.57 | 12.44 |  |  | 
22 | O=C(NCc1cc2nc(-c3cccc(N4CCC(F)(F)C4)n3)ccc2cn1)c1ccc2c(c1)S(=O)(=O)CCOC2 [Compound 202] | 0.0179 |  | 0.136 | 7.59 |  |  | 
23 | O=C(NCc1cc2nc(-c3cccc(N4CCC4)n3)ccc2cn1)c1ccc2c(c1)S(=O)(=O)CCOC2 [Compound 304, N-[[2-[6-(azetidin-1-yl)-2-pyridyl]-1,6-naphthyridin-7-yl]methyl]-1,1-dioxo-3,5-dihydro-2H-4,1λ6-benzoxathiepine-8-carboxamide] | 0.0094 |  | 0.136 | 14.43 |  |  | 
24 | CN(C)S(=O)(=O)c1cccc(C(=O)NCc2cc3nc(-c4cncc(C5CC5)n4)ccc3cn2)c1 [Compound 301] | 0.858 |  | 8.88 | 10.34 |  |  | 
25 | O=C(NCc1cc2nc(-c3cccc([C@@]45CCOCC4C5)n3)ccc2cn1)c1ccc2c(c1)S(=O)(=O)CCOC2 (stereo partly drawn) [Compound 378] |  |  |  |  | 0.0117 | 13.88 | 0.162
26 | C[C@@H]1CN(c2cccc(-c3ccc4cnc(CNC(=O)c5ccc6c(c5)S(=O)(=O)CC[C@@H](C5CC5)O6)cc4n3)n2)C[C@H](C)O1 [Compound 433] |  |  |  |  | 0.331 | 13.59 | 4.5
27 | C[C@H]1CN(c2cccc(-c3ccc4cnc(CNC(=O)c5ccc(Cl)c(S(C)(=O)=O)c5)cc4n3)n2)C[C@H](C)O1 [Compound 179] | 0.0333 |  | 0.383 | 11.49 |  |  | 
28 | COc1cc2c(nc1C)N(c1ccc3cnc(CNC(=O)c4ccc5c(c4)S(=O)(=O)CCOC5)cc3n1)CCC2 [Compound 602] |  |  |  |  | 0.0158 | 9.98 | 0.158
29 | CN1CCCCc2ccc(-c3ccc4cnc(CNC(=O)c5ccc6c(c5)S(=O)(=O)CCOC6)cc4n3)nc21 [Compound 569] |  |  |  |  | 0.156 | 3.32 | 0.517
30 | COc1cc(C)nc2c1CCCN2c1ccc2cnc(CNC(=O)c3ccc4c(c3)S(=O)(=O)CCOC4)cc2n1 [Compound 732] | 0.0093 | 9.97 | 0.0925 |  |  |  | 
31 | O=C(NCc1cc2nc(-c3cccc(OC4CC4)n3)ccc2cn1)c1ccc2c(c1)S(=O)(=O)CCOC2 [Compound 241] | 0.0623 |  | 1.07 | 17.23 |  |  | 
32 | COC[C@H]1C[C@@H]1N(C)c1cccc(-c2ccc3cnc(CNC(=O)c4ccc5c(c4)S(=O)(=O)CCOC5)cc3n2)n1 [Compound 312] |  |  |  |  | 0.0245 | 13.30 | 0.326
33 | COc1ccc2c(c1)OCCN2c1ccc2cnc(CNC(=O)c3ccc4c(c3)S(=O)(=O)CCOC4)cc2n1 [Compound 548] |  |  |  |  | 0.0054 | 9.59 | 0.0517
34 | O=C(NCc1cc2nc(-c3ccc4c(n3)N(CC(F)F)CC4)ccc2cn1)c1ccc2c(c1)S(=O)(=O)CCOC2 [Compound 119] | 0.04 |  | 0.221 | 5.53 |  |  | 
35 | Cc1ccc2c(n1)N(c1ccc3cnc(CNC(=O)c4ccc5c(c4)S(=O)(=O)CCOC5)cc3c1)CCO2 [Compound 679] |  |  |  |  | 0.0189 | 22.41 | 0.423
36 | O=C(NCc1cc2nc(-c3cccc(OCC4CC4)n3)ccc2cn1)c1ccc2c(c1)S(=O)(=O)CCOC2 [Compound 381] |  |  |  |  | 0.0194 | 12.43 | 0.241
